Usually EC50 stands for the concentration that produces a half-maximal response.

Chain of human APJ receptor (P35414 whole entry): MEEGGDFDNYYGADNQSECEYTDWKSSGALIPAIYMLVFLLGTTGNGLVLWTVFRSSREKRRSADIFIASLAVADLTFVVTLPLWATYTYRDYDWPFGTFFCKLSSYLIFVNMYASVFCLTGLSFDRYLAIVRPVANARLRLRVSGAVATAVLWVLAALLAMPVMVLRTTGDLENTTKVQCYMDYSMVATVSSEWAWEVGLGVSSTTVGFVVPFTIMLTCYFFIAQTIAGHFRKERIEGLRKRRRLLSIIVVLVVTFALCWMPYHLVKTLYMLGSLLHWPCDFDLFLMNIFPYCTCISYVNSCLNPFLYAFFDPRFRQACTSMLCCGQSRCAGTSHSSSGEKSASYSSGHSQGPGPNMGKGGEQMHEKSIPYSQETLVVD

The target of the test is human APJ receptor (Homo sapiens (Human), UniProt P35414). The test is described as follows: biochemical. The class given is biochemical. Particulars: [35S]GTPγS binding, CHO membranes expressing human APJ receptor; read-out: Activity hAPJ SPA EC50 IP. In short, it runs like this:
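GTPγS binding on membranes from CHO cells stably expressing FLAG-tagged human APJ, with optimized GDP, MgCl2 and NaCl; incubated 90 min at RT before imaging read-out.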
For orientation: GTPγS resists hydrolysis and so accumulates on activated G proteins.
As for `COc1cccc(OC)c1-n1c(NS(=O)(=O)[C@@H](C)[C@@H](OC(C)C)c2cnc(C)cn2)nnc1-c1cc(C)on1` [Example 497.0, (1S,2S)-N-(4-(2,6-dimethoxyphenyl)-5-(5-methylisoxazol-3-yl)-4H-1,2,4-triazol-3-yl)-1-isopropoxy-1-(5-methylpyrazin-2-yl)propane-2-sulfonamide], the EC50 was 15 nM.

For the compound `COc1cccc(OC)c1-n1c(NS(=O)(=O)[C@@H](C)[C@@H](OC(C)C)c2ncc(C)cn2)nnc1-c1cnn2c1CCC2` [Example 446.0, (1S,2S)-N-(5-(5,6-dihydro-4H-pyrrolo[1,2-b]pyrazol-3-yl)-4-(2,6-dimethoxyphenyl)-4H-1,2,4-triazol-3-yl)-1-isopropoxy-1-(5-methylpyrimidin-2-yl)propane-2-sulfonamide], the EC50 stood at 0.74 nM.

In the case of `COc1cccc(OC)c1-n1c(NS(=O)(=O)[C@@H](C)[C@H](C)c2ncc(C)cn2)nnc1-c1cnn(C)c1` [Example 215.0, (2S,3R)-N-(4-(2,6-dimethoxyphenyl)-5-(1-methyl-1H-pyrazol-4-yl)-4H-1,2,4-triazol-3-yl)-3-(5-methyl-2-pyrimidinyl)-2-butanesulfonamide], the EC50 turned out to be 0.42 nM. For the compound `Cc1cnc([C@H](OC(C)C)[C@H](C)S(=O)(=O)Nc2nnc(-c3ccn(C)n3)n2-c2c(F)cccc2F)nc1` [Example 227.0, (1S,2S)-N-(4-(2,6-difluorophenyl)-5-(1-methyl-1H-pyrazol-3-yl)-4H-1,2,4-triazol-3-yl)-1-(1-methylethoxy)-1-(5-methyl-2-pyrimidinyl)-2-propanesulfonamide], the EC50 turned out to be 1.6 nM.

In the case of `COc1cccc(OC)c1-n1c(NS(=O)(=O)[C@H](C)Cc2ncc(F)cn2)nnc1-c1nc(C2CC2)cs1` [Example 161.0], the EC50 was determined as 3.8 nM. On to `CCc1csc(-c2nnc(NS(=O)(=O)CCc3ccc(F)cc3C#N)n2-c2c(OC)cccc2OC)n1` [Example 153.0, 2-(2-cyano-4-fluorophenyl)-N-(4-(2,6-dimethoxyphenyl)-5-(4-ethylthiazol-2-yl)-4H-1,2,4-triazol-3-yl)ethanesulfonamide], for which the 50% effective concentration (EC50) was 11 nM. Regarding `CNC(=O)n1ccc(-c2nnc(NS(=O)(=O)[C@@H](C)Cc3ncc(F)cn3)n2-c2c(OC)cccc2OC)n1` (racemic) [Example 72.0, (R)-3-(4-(2,6-dimethoxyphenyl)-5-(2-(5-fluoropyrimidin-2-yl)-1-methylethylsulfonamido)-4H-1,2,4-triazol-3-yl)-N-methyl-1H-pyrazole-1-carboxamide (S)-3-(4-(2,6-dimethoxyphenyl)-5-(2-(5-fluoropyrimidin-2-yl)-1-methylethylsulfonamido)-4H-1,2,4-triazol-3-yl)-N-methyl-1H-pyrazole-1-carboxamide], the EC50 was determined as 41 nM. For `CO[C@H](c1ncc(Cl)cn1)[C@H](C)S(=O)(=O)Nc1nnc(-c2nn(C)c3c2CCCC3)n1C1CC1` [Example 514.0, (1R,2S)-1-(5-chloropyrimidin-2-yl)-N-(4-cyclopropyl-5-(1-methyl-4,5,6,7-tetrahydro-1H-indazol-3-yl)-4H-1,2,4-triazol-3-yl)-1-methoxypropane-2-sulfonamide] the value was 19 nM; for `COc1cccc(OC)c1-n1c(NS(=O)(=O)CCc2ccc(Cl)cc2)nnc1-c1cnco1` [Example 138.0, 2-(4-chlorophenyl)-N-(4-(2,6-dimethoxyphenyl)-5-(oxazol-5-yl)-4H-1,2,4-triazol-3-yl)ethanesulfonamide], 586 nM. Regarding `COc1cccc(OC)c1-n1c(NS(=O)(=O)CCN2C(=O)N(C)CC[C@@H]2C)nnc1-c1nc(C)cs1` [Example 13.0, N-(4-(2,6-dimethoxyphenyl)-5-(4-methyl-1,3-thiazol-2-yl)-4H-1,2,4-triazol-3-yl)-2-((6S)-3,6-dimethyl-2-oxotetrahydro-1(2H)-pyrimidinyl)ethanesulfonamide], the EC50 came to 2.9 nM. For the compound `COc1cccc(OC)c1-n1c(NS(=O)(=O)CCc2ccc(Cl)cc2)nnc1-c1ccsc1` [Example 141.0, 2-(4-chlorophenyl)-N-(4-(2,6-dimethoxyphenyl)-5-(thiophen-3-yl)-4H-1,2,4-triazol-3-yl)ethanesulfonamide], the EC50 was determined as 9.4 nM. For `COc1cccc(OC)c1-n1c(NS(=O)(=O)C(C)Cc2ncc(F)cn2)nnc1-c1cc(C)no1` (stereo in doubt) [Example 57.0, (R)-N-(4-(2,6-dimethoxyphenyl)-5-(3-methylisoxazol-5-yl)-4H-1,2,4-triazol-3-yl)-1-(5-fluoropyrimidin-2-yl)propane-2-sulfonamide and (R)-N-(4-(2,6-dimethoxyphenyl)-5-(3-methylisoxazol-5-yl)-4H-1,2,4-triazol-3-yl)-1-(5-fluoropyrimidin-2-yl)propane-2-sulfonamide] the value was 42 nM.

In the case of `COc1cccc(OC)c1-n1c(NS(=O)(=O)[C@H](C)Cc2ncc(F)cn2)nnc1-c1cc(C)no1` (single isomer, unassigned) [Example 63.0, (R)-N-(4-(2,6-dimethoxyphenyl)-5-(3-methylisoxazol-5-yl)-4H-1,2,4-triazol-3-yl)-1-(5-fluoropyrimidin-2-yl)propane-2-sulfonamide or (R)-N-(4-(2,6-dimethoxyphenyl)-5-(3-methylisoxazol-5-yl)-4H-1,2,4-triazol-3-yl)-1-(5-fluoropyrimidin-2-yl)propane-2-sulfonamide], the EC50 is 85 nM.

As for `COc1cccc(OC)c1-n1c(NS(=O)(=O)[C@H](C)[C@@H](OC)c2ccc(C#N)cc2C#N)nnc1-c1ccn(C)n1` (single isomer, unassigned) [Example 265.0, (1S,2R)-1-(2,4-dicyanophenyl)-N-(4-(2,6-dimethoxyphenyl)-5-(1-methyl-1H-pyrazol-3-yl)-4H-1,2,4-triazol-3-yl)-1-methoxy-2-propanesulfonamide or (1R,2S)-1-(2,4-dicyanophenyl)-N-(4-(2,6-dimethoxyphenyl)-5-(1-methyl-1H-pyrazol-3-yl)-4H-1,2,4-triazol-3-yl)-1-methoxy-2-propanesulfonamide], the EC50 amounted to 70 nM. With `CC(C)O[C@@H](c1ncc(Cl)cn1)[C@H](C)S(=O)(=O)Nc1nnc(-c2cnn(C)c2)n1C1CC1` [Example 536.0, (1S,2S)-1-(5-chloro-2-pyrimidinyl)-N-(4-cyclopropyl-5-(1-methyl-1H-pyrazol-4-yl)-4H-1,2,4-triazol-3-yl)-1-(2-propanyloxy)-2-propanesulfonamide], the EC50 was 70 nM. `COc1cccc(OC)c1-n1c(NS(=O)(=O)[C@H](C)Cc2ncc(F)cn2)nnc1-c1ccn(C)c1` (single isomer, unassigned) [Example 35.0, (R)-N-(4-(2,6-dimethoxyphenyl)-5-(1-methyl-1H-pyrrol-3-yl)-4H-1,2,4-triazol-3-yl)-1-(5-fluoropyrimidin-2-yl)propane-2-sulfonamide or (S)-N-(4-(2,6-dimethoxyphenyl)-5-(1-methyl-1H-pyrrol-3-yl)-4H-1,2,4-triazol-3-yl)-1-(5-fluoropyrimidin-2-yl)propane-2-sulfonamide]: the EC50 came out at 27 nM. As to `COc1ncnc(OC)c1-n1c(NS(=O)(=O)[C@@H](C)[C@H](OC)c2ncc(Cl)cn2)nnc1-c1cnn2ccccc12` [Example 439.0, (1R,2S)-1-(5-chloropyrimidin-2-yl)-N-(4-(4,6-dimethoxypyrimidin-5-yl)-5-(pyrazolo[1,5-a]pyridin-3-yl)-4H-1,2,4-triazol-3-yl)-1-methoxypropane-2-sulfonamide], the EC50 came out at 0.82 nM.

In the case of `CCn1ccc(-c2nnc(NS(=O)(=O)[C@@H](C)[C@H](C)c3ncc(C)cn3)n2-c2c(OC)cccc2OC)n1` [Example 389.0, (2S,3R)-N-(4-(2,6-Dimethoxyphenyl)-5-(1-ethyl-1H-pyrazol-3-yl)-4H-1,2,4-triazol-3-yl)-3-(5-methylpyrimidin-2-yl)butane-2-sulfonamide], the EC50 was found to be 0.34 nM.

With `COc1cccc(OC)c1-n1c(NS(=O)(=O)[C@@H](C)[C@H](OC)c2ccc(C#N)cc2C#N)nnc1-c1ccn(C)n1` (mixture of isomers) [Example 264.0, (1S,2R)-1-(2,4-dicyanophenyl)-N-(4-(2,6-dimethoxyphenyl)-5-(1-methyl-1H-pyrazol-3-yl)-4H-1,2,4-triazol-3-yl)-1-methoxy-2-propanesulfonamide and (1R,2S)-1-(2,4-dicyanophenyl)-N-(4-(2,6-dimethoxyphenyl)-5-(1-methyl-1H-pyrazol-3-yl)-4H-1,2,4-triazol-3-yl)-1-methoxy-2-propanesulfonamide], the EC50 came out at 0.8 nM. For `COc1cccc(OC)c1-n1c(NS(=O)(=O)[C@@H](C)[C@H](O)c2ncc(C)cn2)nnc1-c1cc(C)n[nH]1` [Example 349.0, (1R,2S)-N-(4-(2,6-Dimethoxyphenyl)-5-(3-methyl-1H-pyrazol-5-yl)-4H-1,2,4-triazol-3-yl)-1-hydroxy-1-(5-methylpyrimidin-2-yl)propane-2-sulfonamide] the value was 2.1 nM; for `COc1cccc(OC)c1-n1c(NS(=O)(=O)C[C@H](O)c2ccc(Cl)cc2)nnc1-c1ccn(C)n1` (single isomer, unassigned) [Example 375.0, (R)-2-(4-Chlorophenyl)-N-(4-(2,6-dimethoxyphenyl)-5-(1-methyl-1H-pyrazol-3-yl)-4H-1,2,4-triazol-3-yl)-2-hydroxyethanesulfonamide or (R)-2-(4-chlorophenyl)-N-(4-(2,6-dimethoxyphenyl)-5-(1-methyl-1H-pyrazol-3-yl)-4H-1,2,4-triazol-3-yl)-2-hydroxyethanesulfonamide], 5.9 nM; for `COc1cccc(OC)c1-n1c(NS(=O)(=O)[C@@H](C)[C@H](OC)c2ncc(C)cn2)nnc1-c1nc(C2CC2)cs1` [Example 340.0, (1R,2S)-N-(5-(4-cyclopropyl-1,3-thiazol-2-yl)-4-(2,6-dimethoxyphenyl)-4H-1,2,4-triazol-3-yl)-1-methoxy-1-(5-methyl-2-pyrimidinyl)-2-propanesulfonamide], 0.26 nM.

Values taken from patent publication US11046680B1, “Heteroaryl-substituted triazoles as APJ receptor agonists” (priority 2016, dated 2021).
